For test [1], the target named is T1, Transient receptor potential cation channel subfamily A member 1 (Homo sapiens, UniProt O75762). In words: Agonist activity at TRPA1 (unknown origin) by calcium imaging assay.
Test [2] has as its target T1, Transient receptor potential cation channel subfamily A member 1. Briefly: Agonist activity at TRPA1 (unknown origin) by calcium imaging assay relative to allyl isothiocyanate. On the set-up: concentration or dose not given beside the values. As to conditions: filed as agonist.

T1 sequence (O75762 whole entry): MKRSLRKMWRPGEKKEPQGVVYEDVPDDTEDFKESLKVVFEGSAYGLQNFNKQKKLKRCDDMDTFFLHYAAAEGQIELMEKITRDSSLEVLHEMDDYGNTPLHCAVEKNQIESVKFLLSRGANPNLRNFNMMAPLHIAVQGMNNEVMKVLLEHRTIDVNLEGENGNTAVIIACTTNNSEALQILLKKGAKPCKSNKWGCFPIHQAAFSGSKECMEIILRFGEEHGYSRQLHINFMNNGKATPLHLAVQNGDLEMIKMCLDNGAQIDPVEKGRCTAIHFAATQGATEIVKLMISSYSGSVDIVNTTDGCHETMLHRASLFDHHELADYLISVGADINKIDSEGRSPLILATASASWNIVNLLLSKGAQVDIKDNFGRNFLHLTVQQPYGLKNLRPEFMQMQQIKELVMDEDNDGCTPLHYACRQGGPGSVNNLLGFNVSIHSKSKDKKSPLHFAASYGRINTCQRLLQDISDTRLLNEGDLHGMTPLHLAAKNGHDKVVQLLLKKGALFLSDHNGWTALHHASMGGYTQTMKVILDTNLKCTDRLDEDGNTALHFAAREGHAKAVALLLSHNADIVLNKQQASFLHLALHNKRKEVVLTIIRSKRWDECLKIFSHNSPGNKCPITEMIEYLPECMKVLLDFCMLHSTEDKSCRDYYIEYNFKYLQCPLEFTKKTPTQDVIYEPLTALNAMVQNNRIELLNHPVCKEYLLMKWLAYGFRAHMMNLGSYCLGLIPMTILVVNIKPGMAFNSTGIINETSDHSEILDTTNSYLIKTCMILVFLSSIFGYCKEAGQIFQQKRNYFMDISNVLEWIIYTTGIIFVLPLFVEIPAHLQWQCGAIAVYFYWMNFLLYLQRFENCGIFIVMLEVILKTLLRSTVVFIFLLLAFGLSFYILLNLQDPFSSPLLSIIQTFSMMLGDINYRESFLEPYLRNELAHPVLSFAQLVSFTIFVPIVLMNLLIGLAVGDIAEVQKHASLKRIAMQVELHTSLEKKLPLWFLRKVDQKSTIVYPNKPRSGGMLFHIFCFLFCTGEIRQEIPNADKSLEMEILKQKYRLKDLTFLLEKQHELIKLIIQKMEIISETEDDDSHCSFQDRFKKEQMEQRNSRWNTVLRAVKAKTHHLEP

As for `C=Cc1ccc(O)c(OC)c1`, the EC50 in test [1] is 82.8 µM. Also, the Activity in test [2] amounted to 50%.

For `CCc1ccc(O)c(O)c1`, the EC50 in test [1] is 8.69 µM. In addition, in test [2], the Activity is 99%. Regarding `Cc1ccc(C(C)C)c(O)c1`, the Activity in test [2] came out at 140%. Regarding `Cc1cccc(O)c1O`, the EC50 in test [1] was found to be 2.83 µM. Moreover, the Activity in test [2] turned out to be 151%. Consider `C/C=C/c1ccc(O)c(OC)c1`, for which the EC50 in test [1] was determined as 149 µM. In test [2], the Activity was found to be 139%. On to `C=CCc1ccc(O)c(OC)c1` [EUGENOL], for which the EC50 in test [1] was 116 µM. In addition, the Activity in test [2] came out at 122%.

Take `c1ccc2[nH]ccc2c1` [INDOLE]: the EC50 in test [1] came to 75.2 µM. The Activity in test [2] came out at 111%. For the compound `COc1cc(O)c(CC=C(C)C)c2c1C(=O)CC(c1ccc(O)cc1)O2` (stereo not drawn), the Activity in test [2] came to 90%. For the compound `CCc1ccc(O)c(OC)c1`, the EC50 in test [1] came to 101 µM. For the same compound, the Activity in test [2] was determined as 74%. Turning to `Oc1ccccc1Cl` [2-CHLOROPHENOL], in test [1], the EC50 came out at 501 µM. The Activity in test [2] was 54%. For `Cc1ccc(O)c(O)c1`, in that order: 11.7 µM and 107%. On to `Cc1cccc(O)c1C`, for which, in test [1], the EC50 was 86 µM. In test [2], the Activity was found to be 82%. On to `COc1cc(C(=O)C(O)CO)ccc1O` (stereo not drawn), for which the Activity in test [2] was determined as 63%.

(Values after ChEMBL document CHEMBL4673264, “Discovery of natural TRPA1 activators through pharmacophore-based virtual screening and a biological assay” (Bioorg Med Chem Lett, 2021).)
